Measurements from ChEMBL document CHEMBL4052740, “Potent antiobesity effect of a short-length peptide YY-analogue continuously administered in mice” (Bioorg Med Chem Lett, 2017).
Where a SMILES comes first, the peptide text is derived from it. [ ]: non-standard residue; d: D form. Cha = N[C@@H](CC1CCCCC1)C(=O)O; Aib = CC(C)(N)C(=O)O

Assays:
[1] = target: T1, Neuropeptide Y receptor type 2 (Homo sapiens, UniProt P49146); experiment: Agonist activity at human Y2 receptor expressed in CHO cell membranes after 120 mins by [35S]GTPgammaS binding assay; format: functional
T1 sequence (P49146 whole entry): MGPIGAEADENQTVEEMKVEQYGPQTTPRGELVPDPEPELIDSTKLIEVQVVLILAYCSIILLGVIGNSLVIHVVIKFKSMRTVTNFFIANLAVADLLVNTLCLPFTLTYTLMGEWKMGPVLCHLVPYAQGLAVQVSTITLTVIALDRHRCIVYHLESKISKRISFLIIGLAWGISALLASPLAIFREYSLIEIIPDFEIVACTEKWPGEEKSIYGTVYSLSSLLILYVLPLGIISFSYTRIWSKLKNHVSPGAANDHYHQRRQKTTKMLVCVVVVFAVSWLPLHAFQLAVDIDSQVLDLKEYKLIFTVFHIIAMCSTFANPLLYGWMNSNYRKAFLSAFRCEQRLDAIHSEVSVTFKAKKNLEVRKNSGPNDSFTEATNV

Mus musculus = experiment: Anorectic activity in C57BL/6J mouse assessed as inhibition of food intake at 1 mg/kg/day, sc administered by infusion as continuous dosing for 3 days relative to 1 mg/kg/day PYY (3 to 36 residues); format: functional; details: 72 h
[2] = target: T1, Neuropeptide Y receptor type 2; experiment: Displacement of [125I]peptide YY from human Y2 receptor expressed in CHO cell membranes after 60 mins by TopCount scintillation counting analysis

EC50 [1] [nM]	IC50 [2] [nM]	Structure (SMILES)	inhibition in vivo at 1 mg/kg/day (Mus musculus) [%]
0.75	2.5	CC(=O)N[C@@H](CO)C(=O)N1CCC[C@@H]1C(=O)N[C@@H](CCCNC(=N)N)C(=O)N[C@@H](Cc1cnc[nH]1)C(=O)N[C@@H](CC1CCCCC1)C(=O)N[C@@H](Cc1ccncc1)C(=O)N[C@@H](CC(N)=O)C(=O)N[C@@H](CC(C)C)C(=O)NC(C)(C)C(=O)N[C@H](C(=O)N[C@@H](CCCNC(=N)N)C(=O)N[C@@H](CCC(N)=O)C(=O)N[C@@H](CCCNC(=N)N)C(=O)N[C@@H](CC1CCCCC1)C(N)=O)[C@@H](C)O	41
0.41	0.94	CC(=O)N[C@@H](CO)C(=O)N1CCC[C@@H]1C(=O)N[C@@H](CCCNC(=N)N)C(=O)N[C@@H](Cc1cnc[nH]1)C(=O)N[C@@H](CC1CCCCC1)C(=O)N[C@@](C)(CC(C)C)C(=O)N[C@@H](CC(N)=O)C(=O)N[C@@H](CC(C)C)C(=O)NC(C)(C)C(=O)N[C@H](C(=O)N[C@@H](CCCNC(=N)N)C(=O)N[C@@H](CCC(N)=O)C(=O)N[C@@H](CCCNC(=N)N)C(=O)N[C@@H](CC1CCCCC1)C(N)=O)[C@@H](C)O	59
0.42	1.1	CC(=O)N[C@@H](CO)C(=O)N1CCC[C@@H]1C(=O)N[C@@H](CCCNC(=N)N)C(=O)N[C@@H](CCC(N)=O)C(=O)N[C@@H](CC1CCCCC1)C(=O)N[C@@H](CC1CCCCC1)C(=O)N[C@@H](CC(N)=O)C(=O)N[C@@H](CC(C)C)C(=O)NC(C)(C)C(=O)N[C@H](C(=O)N[C@@H](CCCNC(=N)N)C(=O)N[C@@H](CCC(N)=O)C(=O)N[C@@H](CCCNC(=N)N)C(=O)N[C@@H](CC1CCCCC1)C(N)=O)[C@@H](C)O	55
0.66	1.4	CC(=O)N[C@@H](CO)C(=O)N1CCC[C@@H]1C(=O)N[C@@H](CCCNC(=N)N)C(=O)N[C@@H](Cc1cnc[nH]1)C(=O)N[C@@H](CC1CCCCC1)C(=O)NC(C)(C)C(=O)N[C@@H](CC(N)=O)C(=O)N[C@@H](CC(C)C)C(=O)NC(C)(C)C(=O)N[C@H](C(=O)N[C@@H](CCCNC(=N)N)C(=O)N[C@@H](CCC(N)=O)C(=O)N[C@@H](CCCNC(=N)N)C(=O)N[C@@H](CC1CCCCC1)C(N)=O)[C@@H](C)O	59
0.61	1.5	CC(=O)N[C@@H](CO)C(=O)N1CCC[C@@H]1C(=O)N[C@@H](CCCNC(=N)N)C(=O)N[C@@H](Cc1cnc[nH]1)C(=O)N[C@@H](CC1CCCCC1)C(=O)N[C@@H](CC1CCCCC1)C(=O)N[C@@H](CC(N)=O)C(=O)N[C@@H](CC(C)C)C(=O)NC(C)(C)C(=O)N[C@H](C(=O)N[C@@H](CCCNC(=N)N)C(=O)N[C@@H](CCC(N)=O)C(=O)N[C@@H](CCCNC(=N)N)C(=O)N[C@@H](CC1CCCCC1)C(N)=O)[C@@H](C)O (Ac-S[dP]RH[Cha][Cha]NL[Aib]TRQR[Cha]-NH2)	33
0.068	1.2	CC(=O)N[C@@H](CO)C(=O)N1CCC[C@@H]1C(=O)N[C@@H](CCCNC(=N)N)C(=O)N[C@@H](Cc1cnc[nH]1)C(=O)N[C@@H](CC1CCCCC1)C(=O)N[C@@H](CC1CCCCC1)C(=O)N[C@@H](CC(N)=O)C(=O)N[C@@H](CCCN)C(=O)NC(C)(C)C(=O)N[C@H](C(=O)N[C@@H](CCCNC(=N)N)C(=O)N[C@@H](CCC(N)=O)C(=O)N[C@@H](CCCNC(=N)N)C(=O)N[C@@H](CC1CCCCC1)C(N)=O)[C@@H](C)O	22
0.19	0.49	CC(=O)N[C@@H](CO)C(=O)N1CCC[C@@H]1C(=O)N[C@@H](CCCNC(=N)N)C(=O)N[C@@H](Cc1ccncc1)C(=O)N[C@@H](CC1CCCCC1)C(=O)N[C@@H](CC1CCCCC1)C(=O)N[C@@H](CC(N)=O)C(=O)N[C@@H](CC(C)C)C(=O)NC(C)(C)C(=O)N[C@H](C(=O)N[C@@H](CCCNC(=N)N)C(=O)N[C@@H](CCC(N)=O)C(=O)N[C@@H](CCCNC(=N)N)C(=O)N[C@@H](CC1CCCCC1)C(N)=O)[C@@H](C)O	72
0.33	0.97	CC(=O)N[C@@H](CO)C(=O)N1CCC[C@@H]1C(=O)N[C@@H](CCCNC(=N)N)C(=O)N[C@@H](CO)C(=O)N[C@@H](CC1CCCCC1)C(=O)N[C@@H](CC1CCCCC1)C(=O)N[C@@H](CC(N)=O)C(=O)N[C@@H](CC(C)C)C(=O)NC(C)(C)C(=O)N[C@H](C(=O)N[C@@H](CCCNC(=N)N)C(=O)N[C@@H](CCC(N)=O)C(=O)N[C@@H](CCCNC(=N)N)C(=O)N[C@@H](CC1CCCCC1)C(N)=O)[C@@H](C)O	54
1.7	2.6	CC(=O)N[C@@H](CO)C(=O)N1CCC[C@@H]1C(=O)N[C@@H](CCCNC(=N)N)C(=O)N[C@@H](Cc1cnc[nH]1)C(=O)NC(C)(C)C(=O)N[C@@H](CC1CCCCC1)C(=O)N[C@@H](CC(N)=O)C(=O)N[C@@H](CC(C)C)C(=O)NC(C)(C)C(=O)N[C@H](C(=O)N[C@@H](CCCNC(=N)N)C(=O)N[C@@H](CCC(N)=O)C(=O)N[C@@H](CCCNC(=N)N)C(=O)N[C@@H](CC1CCCCC1)C(N)=O)[C@@H](C)O	–
3.8	11	CC(=O)N[C@@H](CO)C(=O)N1CCC[C@@H]1C(=O)N[C@@H](CCCNC(=N)N)C(=O)N[C@@H](Cc1cnc[nH]1)C(=O)N[C@@H](Cc1cnc[nH]1)C(=O)N[C@@H](CC1CCCCC1)C(=O)N[C@@H](CC(N)=O)C(=O)N[C@@H](CC(C)C)C(=O)NC(C)(C)C(=O)N[C@H](C(=O)N[C@@H](CCCNC(=N)N)C(=O)N[C@@H](CCC(N)=O)C(=O)N[C@@H](CCCNC(=N)N)C(=O)N[C@@H](CC1CCCCC1)C(N)=O)[C@@H](C)O	–
2.5	5.3	CC(=O)N[C@@H](CO)C(=O)N1CCC[C@@H]1C(=O)N[C@@H](CCCNC(=N)N)C(=O)N[C@@H](Cc1cnc[nH]1)C(=O)N[C@@H](Cc1ccc(O)cc1)C(=O)N[C@@H](CC1CCCCC1)C(=O)N[C@@H](CC(N)=O)C(=O)N[C@@H](CC(C)C)C(=O)NC(C)(C)C(=O)N[C@H](C(=O)N[C@@H](CCCNC(=N)N)C(=O)N[C@@H](CCC(N)=O)C(=O)N[C@@H](CCCNC(=N)N)C(=O)N[C@@H](CC1CCCCC1)C(N)=O)[C@@H](C)O	–
0.48	3	CC(=O)N[C@@H](CO)C(=O)N1CCC[C@@H]1C(=O)N[C@@H](CCCNC(=N)N)C(=O)N[C@@H](Cc1cnc[nH]1)C(=O)N[C@@H](CC1CCCCC1)C(=O)N[C@@H](CC1CCCCC1)C(=O)N[C@@H](CC(N)=O)C(=O)N[C@@H](Cc1ccncc1)C(=O)NC(C)(C)C(=O)N[C@H](C(=O)N[C@@H](CCCNC(=N)N)C(=O)N[C@@H](CCC(N)=O)C(=O)N[C@@H](CCCNC(=N)N)C(=O)N[C@@H](CC1CCCCC1)C(N)=O)[C@@H](C)O	–
4.4	8.7	CC(=O)N[C@@H](CO)C(=O)N1CCC[C@@H]1C(=O)N[C@@H](CCCNC(=N)N)C(=O)N[C@@H](Cc1cnc[nH]1)C(=O)N[C@@H](CCC(N)=O)C(=O)N[C@@H](CC1CCCCC1)C(=O)N[C@@H](CC(N)=O)C(=O)N[C@@H](CC(C)C)C(=O)NC(C)(C)C(=O)N[C@H](C(=O)N[C@@H](CCCNC(=N)N)C(=O)N[C@@H](CCC(N)=O)C(=O)N[C@@H](CCCNC(=N)N)C(=O)N[C@@H](CC1CCCCC1)C(N)=O)[C@@H](C)O	–
1	2.8	CC(=O)N[C@@H](CO)C(=O)N1CCC[C@@H]1C(=O)N[C@@H](CCCNC(=N)N)C(=O)N[C@@H](Cc1cnc[nH]1)C(=O)N[C@@H](CC1CCCCC1)C(=O)N[C@@H](Cc1cnc[nH]1)C(=O)N[C@@H](CC(N)=O)C(=O)N[C@@H](CC(C)C)C(=O)NC(C)(C)C(=O)N[C@H](C(=O)N[C@@H](CCCNC(=N)N)C(=O)N[C@@H](CCC(N)=O)C(=O)N[C@@H](CCCNC(=N)N)C(=O)N[C@@H](CC1CCCCC1)C(N)=O)[C@@H](C)O	–
0.6	2.3	CC(=O)N[C@@H](CO)C(=O)N1CCC[C@@H]1C(=O)N[C@@H](CCCNC(=N)N)C(=O)N[C@@H](Cc1cnc[nH]1)C(=O)N[C@@H](CC1CCCCC1)C(=O)N[C@@H](CC1CCCCC1)C(=O)N[C@@H](CC(N)=O)C(=O)N[C@@H](CO)C(=O)NC(C)(C)C(=O)N[C@H](C(=O)N[C@@H](CCCNC(=N)N)C(=O)N[C@@H](CCC(N)=O)C(=O)N[C@@H](CCCNC(=N)N)C(=O)N[C@@H](CC1CCCCC1)C(N)=O)[C@@H](C)O	–
0.21	1.3	CCCC[C@H](NC(=O)[C@H](CC(N)=O)NC(=O)[C@H](CC1CCCCC1)NC(=O)[C@H](CC1CCCCC1)NC(=O)[C@H](Cc1cnc[nH]1)NC(=O)[C@H](CCCNC(=N)N)NC(=O)[C@H]1CCCN1C(=O)[C@H](CO)NC(C)=O)C(=O)NC(C)(C)C(=O)N[C@H](C(=O)N[C@@H](CCCNC(=N)N)C(=O)N[C@@H](CCC(N)=O)C(=O)N[C@@H](CCCNC(=N)N)C(=O)N[C@@H](CC1CCCCC1)C(N)=O)[C@@H](C)O	–
1.8	6	CC(=O)N[C@@H](CO)C(=O)N1CCC[C@@H]1C(=O)N[C@@H](CCCNC(=N)N)C(=O)N[C@@H](Cc1cnc[nH]1)C(=O)N[C@@H](Cc1ccncc1)C(=O)N[C@@H](CC1CCCCC1)C(=O)N[C@@H](CC(N)=O)C(=O)N[C@@H](CC(C)C)C(=O)NC(C)(C)C(=O)N[C@H](C(=O)N[C@@H](CCCNC(=N)N)C(=O)N[C@@H](CCC(N)=O)C(=O)N[C@@H](CCCNC(=N)N)C(=O)N[C@@H](CC1CCCCC1)C(N)=O)[C@@H](C)O	–
